Results as given in ChEMBL document CHEMBL1201862, “PubChem BioAssay data set” (2004).
Activity calls are given as the source filed them.

How the values were obtained:
Interleukin-8 = biological target: T1, Interleukin-8 (Homo sapiens, UniProt P10145); assay: Dose Response confirmation of uHTS small molecule hits for cystic fibrosis induced NFkb Inhibitors in a PAF-induced IL8 counterscreen.; format: functional; conditions: read-out: IC50_Mean
T1 sequence (P10145 whole entry): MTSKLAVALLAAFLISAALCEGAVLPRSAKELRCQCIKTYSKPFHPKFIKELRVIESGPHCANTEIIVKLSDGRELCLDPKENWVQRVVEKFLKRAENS

[1] = blockers of HIV-1 envelope-mediated cell-cell fusion – cherry-pick, dose response (AID 652057); format: functional, cell-based
[2] = viability loss in CEM21 cells – cell-based, CellTiter-Glo luminescence, cherry-picked, cytotoxicity control for viral fusion inhibitor project, dose response (AID 652042); format: functional;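 further: potency for signal decrease meaning cytotoxicity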
[3] = blockers of HIV-1 ZM109 envelope-driven cell-cell fusion – HeLa effector, CEM target cells, luciferase, cherry-pick, dose response (AID 652058); format: functional, cell-based;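 further: luciferase signal from HIV-1 Env mediated cell-cell fusion of effector and target cells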
[4] = off-target signal loss in HeLa-CEM21 co-culture – HeLa F-luc CTL cells, cherry-picked, counter-screen for HIV-1 Env fusion inhibitor project, dose response (AID 652040); format: functional, cell-based;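 further: potency for signal decrease marking cytotoxic or nonspecific inhibition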
[5] = HIV-1 AD8 envelope cell-cell fusion blockers – cherry-pick, dose response (AID 652062); format: functional, cell-based;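 further: luciferase signal from cell-cell fusion driven by HIV-1 clade B AD8 Env; potency is for inhibitors of fusion seen as a drop in luminescence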
[6] = biological target: T2, Apoptotic protease-activating factor 1 (Homo sapiens, UniProt O14727); assay: SAR analysis of small molecule Activators of Apaf-1 in a Fluorescent assay.; format: functional; conditions: read-out: EC50_Mean;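 further: caspase-3 cleavage of fluorogenic Rh110 DEVD substrate downstream of apoptosome activation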
T2 sequence (O14727 whole entry): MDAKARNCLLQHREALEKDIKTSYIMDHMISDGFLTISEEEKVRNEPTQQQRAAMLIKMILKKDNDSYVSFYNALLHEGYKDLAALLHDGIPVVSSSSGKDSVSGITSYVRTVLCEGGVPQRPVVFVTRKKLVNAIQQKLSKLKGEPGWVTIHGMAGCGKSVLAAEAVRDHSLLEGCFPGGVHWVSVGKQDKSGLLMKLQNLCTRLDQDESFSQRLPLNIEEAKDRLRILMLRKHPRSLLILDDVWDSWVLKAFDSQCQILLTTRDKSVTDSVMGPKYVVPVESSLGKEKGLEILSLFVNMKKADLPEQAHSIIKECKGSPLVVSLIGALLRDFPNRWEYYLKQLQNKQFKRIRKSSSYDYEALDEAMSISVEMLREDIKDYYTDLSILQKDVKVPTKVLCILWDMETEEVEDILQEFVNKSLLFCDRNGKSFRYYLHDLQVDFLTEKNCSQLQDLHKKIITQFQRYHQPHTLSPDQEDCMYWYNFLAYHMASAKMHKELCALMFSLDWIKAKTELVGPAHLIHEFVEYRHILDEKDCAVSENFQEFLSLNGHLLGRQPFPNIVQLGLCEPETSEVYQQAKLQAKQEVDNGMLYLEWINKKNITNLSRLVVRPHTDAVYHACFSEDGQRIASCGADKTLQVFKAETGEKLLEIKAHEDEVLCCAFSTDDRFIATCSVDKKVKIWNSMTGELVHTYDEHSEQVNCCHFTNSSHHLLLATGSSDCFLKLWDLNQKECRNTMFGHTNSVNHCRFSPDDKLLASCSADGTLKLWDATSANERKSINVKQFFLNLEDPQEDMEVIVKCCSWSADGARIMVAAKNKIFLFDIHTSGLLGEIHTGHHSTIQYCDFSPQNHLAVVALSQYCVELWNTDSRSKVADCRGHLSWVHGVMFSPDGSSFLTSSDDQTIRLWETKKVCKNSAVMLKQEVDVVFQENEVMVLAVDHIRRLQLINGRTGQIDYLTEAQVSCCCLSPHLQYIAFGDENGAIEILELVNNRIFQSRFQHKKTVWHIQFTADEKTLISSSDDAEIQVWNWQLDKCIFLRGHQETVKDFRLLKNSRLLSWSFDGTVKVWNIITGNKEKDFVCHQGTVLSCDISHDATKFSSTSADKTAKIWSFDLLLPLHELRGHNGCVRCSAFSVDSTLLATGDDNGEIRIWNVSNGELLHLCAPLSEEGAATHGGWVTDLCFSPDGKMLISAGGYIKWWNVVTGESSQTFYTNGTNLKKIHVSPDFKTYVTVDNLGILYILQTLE

[7] = biological target: T3, Tyrosine-protein phosphatase non-receptor type 11 (Homo sapiens, UniProt Q06124); assay: PTPN11 enzyme inhibitors – biochemical, selectivity assay for STEP inhibitor project, dose response (AID 602367); format: functional; conditions: read-out: IC50_Mean
T3 sequence (Q06124 whole entry): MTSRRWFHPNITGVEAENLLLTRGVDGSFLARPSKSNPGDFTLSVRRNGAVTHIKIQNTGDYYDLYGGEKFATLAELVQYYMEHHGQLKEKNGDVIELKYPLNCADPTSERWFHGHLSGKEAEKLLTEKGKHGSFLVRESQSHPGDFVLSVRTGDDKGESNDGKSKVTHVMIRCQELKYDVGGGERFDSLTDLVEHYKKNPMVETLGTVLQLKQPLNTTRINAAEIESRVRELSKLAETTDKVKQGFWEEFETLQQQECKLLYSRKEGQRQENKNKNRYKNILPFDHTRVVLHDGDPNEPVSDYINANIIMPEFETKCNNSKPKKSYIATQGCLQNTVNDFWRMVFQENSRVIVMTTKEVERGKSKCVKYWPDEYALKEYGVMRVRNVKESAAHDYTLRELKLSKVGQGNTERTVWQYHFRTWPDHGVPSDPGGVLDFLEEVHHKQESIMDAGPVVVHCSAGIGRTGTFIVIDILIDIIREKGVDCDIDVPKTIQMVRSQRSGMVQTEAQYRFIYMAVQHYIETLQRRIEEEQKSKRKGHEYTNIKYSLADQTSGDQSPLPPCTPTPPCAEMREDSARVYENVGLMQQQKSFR

[8] = biological target: T4, Tyrosine-protein phosphatase non-receptor type 5 (Homo sapiens, UniProt P54829); assay: PTPN5 enzyme inhibition – biochemical, fluorescence intensity, uHTS hits, confirmation (AID 602372); format: functional; conditions: read-out: IC50_Mean
T4 sequence (P54829 whole entry): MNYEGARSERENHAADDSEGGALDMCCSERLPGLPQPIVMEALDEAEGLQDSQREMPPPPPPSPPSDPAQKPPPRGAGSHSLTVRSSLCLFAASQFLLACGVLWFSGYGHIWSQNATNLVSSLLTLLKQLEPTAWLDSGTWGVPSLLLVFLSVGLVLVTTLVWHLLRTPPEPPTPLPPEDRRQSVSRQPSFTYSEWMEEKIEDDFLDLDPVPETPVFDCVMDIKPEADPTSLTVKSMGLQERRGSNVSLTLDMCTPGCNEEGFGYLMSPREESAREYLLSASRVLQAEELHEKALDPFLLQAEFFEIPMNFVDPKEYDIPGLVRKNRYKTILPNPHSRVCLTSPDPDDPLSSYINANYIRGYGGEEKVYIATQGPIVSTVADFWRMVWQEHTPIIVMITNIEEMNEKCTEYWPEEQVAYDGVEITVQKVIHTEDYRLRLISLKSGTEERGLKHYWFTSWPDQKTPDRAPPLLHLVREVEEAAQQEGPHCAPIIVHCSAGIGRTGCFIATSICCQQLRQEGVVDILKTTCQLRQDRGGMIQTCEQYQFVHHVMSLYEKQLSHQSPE

[9] = biological target: Dual specificity protein phosphatase 3 (Homo sapiens, UniProt P51452); assay: VHR phosphatase inhibition, dose response, selectivity assay for STEP inhibitor project, biochemical (AID 602374); format: functional; conditions: read-out: IC50_Mean
P388/ADR = assay: cells; format: functional; conditions: Mus musculus
SN12K1 = assay: cells; format: functional; conditions: Homo sapiens
P388 = assay: cells; format: functional; conditions: Mus musculus
[10] = biological target: Photoreceptor-specific nuclear receptor (Homo sapiens, UniProt Q9Y5X4); format: functional, cell-based;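 further: CHO-S cells with Gal4-NCOR and VP16-NR2E3 two-hybrid luciferase reporter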
[11] = biological target: T5, DNA repair protein RAD52 homolog (Homo sapiens, UniProt P43351); format: functional, biochemical
T5 sequence (P43351 whole entry): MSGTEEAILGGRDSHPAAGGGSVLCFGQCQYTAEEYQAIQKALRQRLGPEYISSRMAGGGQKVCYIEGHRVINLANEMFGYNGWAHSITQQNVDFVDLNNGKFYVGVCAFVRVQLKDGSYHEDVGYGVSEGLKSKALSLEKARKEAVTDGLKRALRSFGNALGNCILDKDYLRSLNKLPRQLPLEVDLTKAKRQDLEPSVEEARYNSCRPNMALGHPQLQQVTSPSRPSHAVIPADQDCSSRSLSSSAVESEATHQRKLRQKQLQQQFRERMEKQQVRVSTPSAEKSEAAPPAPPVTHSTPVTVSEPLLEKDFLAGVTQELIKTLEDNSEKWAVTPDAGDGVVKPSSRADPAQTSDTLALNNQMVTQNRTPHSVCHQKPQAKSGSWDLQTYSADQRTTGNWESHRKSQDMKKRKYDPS

[12] = luciferase reporter signal suppression in cells – H4 neuroglioma cells, luminescence, dose response (AID 1990); format: functional, cell-based
[13] = Luminescence Cell-Based Dose Response HTS to Identify Inhibitors of 5'UTR Stem-Loop Driven Prion Protein mRNA Translation in H4 Neuroglioblastoma Cells. [Related pubchem assays: 1827 (Project Summary), 1813 (Primary HTS)]; format: functional
[14] = alpha-synuclein stem-loop luciferase translation blockers – H4 neuroglioma cells, luminescence, confirmation (AID 1988); format: functional, cell-based
[15] = biological target: T6, Mitochondrial peptide methionine sulfoxide reductase (Bos taurus, UniProt P54149); format: functional;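 further: absorbance read-out, biochemical high-throughput dose-response screen for MsrA inhibitors, confirmatory; recombinant bovine MsrA coupled to E. coli TrxB with NADPH and selenocystamine; potency is for inhibitors of MsrA activity on DMSO substrate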
T6 sequence (P54149 whole entry): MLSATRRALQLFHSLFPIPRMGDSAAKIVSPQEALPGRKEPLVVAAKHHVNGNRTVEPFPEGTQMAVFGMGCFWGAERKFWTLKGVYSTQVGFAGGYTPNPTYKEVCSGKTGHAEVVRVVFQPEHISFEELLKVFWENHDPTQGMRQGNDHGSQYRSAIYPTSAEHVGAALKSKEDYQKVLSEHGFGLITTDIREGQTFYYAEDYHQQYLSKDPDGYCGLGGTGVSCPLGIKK

[16] = biological target: Nuclear receptor subfamily 5 group A member 2 (Homo sapiens, UniProt O00482); format: functional, cell-based;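 further: HEK293T cells transfected with LRH-1 and a StAR promoter luciferase reporter; potency for inhibitors that lower LRH-1 driven reporter light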
Steroidogenic factor 1 = Steroidogenic factor 1 (Homo sapiens, UniProt Q13285); assay: Counterscreen for inverse agonists of the liver receptor homolog-1 (LRH-1; NR5A2): Luminescence-based cell-based high throughput dose response assay to identify inverse agonists of the Steroidogenic Factor 1 Nuclear Receptor (SF1; NR5A1).; format: functional
[17] = nonselective StAR promoter luciferase inhibitors – cell-based, luminescence, luciferase reporter, counter-screen for LRH-1 inverse agonist project, dose response (AID 651969); format: functional
Genome polyprotein = Genome polyprotein (dengue virus type 2, UniProt P29990); assay: flavivirus cap methylation enzyme inhibition – biochemical, confirmation dose response, primary screen (AID 588689); format: functional
[18] = biological target: T7, Tyrosyl-DNA phosphodiesterase 2 (Homo sapiens, UniProt O95551); assay: potency against TDP2 phosphodiesterase activity – biochemical, epi absorbance, IC50, dose response (AID 743297)
T7 sequence (O95551 whole entry): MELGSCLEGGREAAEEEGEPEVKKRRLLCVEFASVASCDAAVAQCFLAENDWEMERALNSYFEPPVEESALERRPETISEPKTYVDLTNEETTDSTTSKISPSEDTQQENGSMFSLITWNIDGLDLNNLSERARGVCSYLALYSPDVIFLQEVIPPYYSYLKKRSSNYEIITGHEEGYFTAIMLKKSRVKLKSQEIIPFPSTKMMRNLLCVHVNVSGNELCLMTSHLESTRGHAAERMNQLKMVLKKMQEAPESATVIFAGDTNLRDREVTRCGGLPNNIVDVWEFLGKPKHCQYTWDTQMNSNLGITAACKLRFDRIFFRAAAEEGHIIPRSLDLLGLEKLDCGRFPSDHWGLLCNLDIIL

Chain of Steroidogenic factor 1 (Q13285 whole entry): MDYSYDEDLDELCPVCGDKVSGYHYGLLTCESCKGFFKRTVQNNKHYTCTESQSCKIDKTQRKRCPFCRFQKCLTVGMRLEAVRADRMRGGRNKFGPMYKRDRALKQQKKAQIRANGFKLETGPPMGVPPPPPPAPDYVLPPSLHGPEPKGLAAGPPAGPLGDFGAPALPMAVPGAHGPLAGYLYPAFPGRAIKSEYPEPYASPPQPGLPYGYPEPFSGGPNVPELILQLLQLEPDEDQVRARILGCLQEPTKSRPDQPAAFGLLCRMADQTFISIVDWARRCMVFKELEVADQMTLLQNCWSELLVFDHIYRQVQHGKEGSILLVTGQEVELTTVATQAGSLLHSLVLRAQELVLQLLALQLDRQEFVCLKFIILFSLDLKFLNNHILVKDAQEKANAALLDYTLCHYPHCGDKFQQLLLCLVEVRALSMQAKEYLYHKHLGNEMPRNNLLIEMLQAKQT
Chain of Nuclear receptor subfamily 5 group A member 2 (O00482 whole entry): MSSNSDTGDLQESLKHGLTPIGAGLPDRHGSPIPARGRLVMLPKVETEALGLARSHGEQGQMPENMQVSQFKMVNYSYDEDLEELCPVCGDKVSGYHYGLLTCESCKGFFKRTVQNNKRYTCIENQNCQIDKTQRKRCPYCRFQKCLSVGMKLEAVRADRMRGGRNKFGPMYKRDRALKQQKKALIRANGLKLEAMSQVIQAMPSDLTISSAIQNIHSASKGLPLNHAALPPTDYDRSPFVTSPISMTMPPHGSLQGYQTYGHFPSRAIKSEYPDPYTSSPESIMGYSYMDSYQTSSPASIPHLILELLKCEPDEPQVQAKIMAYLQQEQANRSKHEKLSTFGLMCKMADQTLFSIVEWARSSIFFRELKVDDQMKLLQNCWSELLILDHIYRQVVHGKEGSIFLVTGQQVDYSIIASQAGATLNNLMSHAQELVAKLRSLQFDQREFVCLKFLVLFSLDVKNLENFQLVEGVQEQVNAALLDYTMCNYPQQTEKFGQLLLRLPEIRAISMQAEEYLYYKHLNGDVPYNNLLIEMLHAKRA
Chain of Dual specificity protein phosphatase 3 (P51452 whole entry): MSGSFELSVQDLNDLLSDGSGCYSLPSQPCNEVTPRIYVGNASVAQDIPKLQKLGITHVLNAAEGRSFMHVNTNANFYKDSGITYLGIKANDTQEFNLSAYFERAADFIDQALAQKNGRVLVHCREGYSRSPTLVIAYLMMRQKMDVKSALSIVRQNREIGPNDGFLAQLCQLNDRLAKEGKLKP
Chain of Photoreceptor-specific nuclear receptor (Q9Y5X4 whole entry, the tested form may be a part): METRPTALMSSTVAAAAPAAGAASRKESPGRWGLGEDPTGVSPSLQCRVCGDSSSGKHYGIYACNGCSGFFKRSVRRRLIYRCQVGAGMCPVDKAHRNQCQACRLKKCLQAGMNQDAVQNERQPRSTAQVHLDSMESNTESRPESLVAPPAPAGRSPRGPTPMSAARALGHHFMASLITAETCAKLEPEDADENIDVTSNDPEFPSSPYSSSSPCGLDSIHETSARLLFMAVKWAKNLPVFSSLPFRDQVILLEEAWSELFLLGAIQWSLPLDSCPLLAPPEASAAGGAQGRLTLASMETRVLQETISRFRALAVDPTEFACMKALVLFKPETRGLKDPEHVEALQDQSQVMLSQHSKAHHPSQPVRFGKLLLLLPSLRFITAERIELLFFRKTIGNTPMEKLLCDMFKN
Chain of Genome polyprotein (P29990 2492-3391 limits assumed): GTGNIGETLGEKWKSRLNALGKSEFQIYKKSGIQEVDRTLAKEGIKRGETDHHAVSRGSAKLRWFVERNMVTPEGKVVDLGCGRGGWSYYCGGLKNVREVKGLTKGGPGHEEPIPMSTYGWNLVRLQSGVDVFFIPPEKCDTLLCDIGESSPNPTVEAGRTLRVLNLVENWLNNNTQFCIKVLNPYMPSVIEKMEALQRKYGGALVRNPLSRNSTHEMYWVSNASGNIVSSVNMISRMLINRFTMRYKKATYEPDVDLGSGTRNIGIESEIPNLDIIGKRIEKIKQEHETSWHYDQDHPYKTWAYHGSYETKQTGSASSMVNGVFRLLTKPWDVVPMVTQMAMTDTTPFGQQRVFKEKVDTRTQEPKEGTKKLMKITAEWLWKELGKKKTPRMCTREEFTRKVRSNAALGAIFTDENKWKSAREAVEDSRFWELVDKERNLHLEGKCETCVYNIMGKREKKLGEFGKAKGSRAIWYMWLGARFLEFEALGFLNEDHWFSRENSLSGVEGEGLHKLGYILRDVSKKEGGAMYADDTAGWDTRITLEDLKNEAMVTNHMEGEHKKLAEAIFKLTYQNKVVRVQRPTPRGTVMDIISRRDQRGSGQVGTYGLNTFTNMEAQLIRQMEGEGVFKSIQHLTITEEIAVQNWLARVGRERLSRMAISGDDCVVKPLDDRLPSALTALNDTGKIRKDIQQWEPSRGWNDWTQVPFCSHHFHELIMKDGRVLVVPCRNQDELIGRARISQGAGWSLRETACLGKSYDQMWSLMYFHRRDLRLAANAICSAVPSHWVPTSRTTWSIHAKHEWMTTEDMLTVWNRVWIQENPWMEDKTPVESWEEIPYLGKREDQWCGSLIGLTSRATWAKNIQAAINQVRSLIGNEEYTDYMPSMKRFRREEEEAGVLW

CN(C)C(=O)c1cccc(-c2cnc3sc(NCc4ccc5c(c4)OCO5)nn23)c1
IC50 (Interleukin-8): 11.8 µM (inactive) | AC50 [1]: 4.47 µM (active) | AC50 [2]: 66.1 µM (active) | AC50 [3]: 4.54 µM (active) | AC50 [4]: 3.03 µM (active) | AC50 [5]: 4.18 µM (active)

Cc1csc2c(=O)sc(NC(=O)c3ccco3)nc12
EC50 [6]: > 100 µM (inactive)

Cn1cc(CC(=O)Nc2cccc(C#N)c2)c2ccccc21
IC50 [7]: > 80 µM (inactive) | IC50 [8]: > 80 µM (inactive) | IC50 [9]: 51.9 µM (inactive)

COc1ccc(NC(=S)N2CCC(N(C)CC3CCCO3)CC2)cc1Cl (stereo unspecified)
IC50 [7]: 3.65 µM (active) | IC50 [8]: 27.2 µM (inactive) | IC50 [9]: 1.37 µM (active)

CC(Cc1ccccc1)C(=O)O (stereo unspecified)
EC50 [6]: > 100 µM (inactive)

COc1cc2c(oc(=O)c3cc(C)cc(OC)c32)c2c(C3OC(C)C(O)C(C)(O)C3O)ccc(O)c12 (stereo unspecified)
GI50 (P388/ADR): 219 nM (active) | GI50 (SN12K1): 349 nM (active) | GI50 (P388): 171 nM (active) | IC50 [10]: 12.7 µM (inactive) | AC50 [11]: 18.8 µM (active)

O=[N+]([O-])c1c(Nc2ccccc2O)cc(N2CCOCC2)c2nonc12
EC50 [12]: 25.1 µM (active) | EC50 [13]: 30.5 µM (active) | EC50 [14]: 111 µM (active) | IC50 [15]: 67.7 µM (inactive)

CC(Oc1ccc(S(=O)(=O)N2CCCC2)cc1[N+](=O)[O-])C(=O)NC(C)c1ccccc1 (stereo unspecified)
IC50 [16]: 11.8 µM (inactive) | IC50 (Steroidogenic factor 1): 7.26 µM (active) | IC50 [17]: 20.1 µM (inactive)

O=C(Cc1ccc(S(=O)(=O)N2CCCC2)s1)Nc1cccc([N+](=O)[O-])c1
IC50 [16]: 13 µM (inactive) | IC50 (Steroidogenic factor 1): 6.79 µM (active) | IC50 [17]: 35.9 µM (inactive)

NC(=S)N1OC[C@@H]2COc3ccc4ccccc4c3[C@@H]21
IC50 (Interleukin-8): 8.34 µM (active)

O=C(O)c1ccc(NC2=C/C(=N/S(=O)(=O)c3cccs3)c3ccccc3C2=O)cc1
IC50 (Genome polyprotein): 58.1 µM (active) | IC50 [15]: 4.82 µM (active) | IC50 [18]: 817 nM (active)

CC(=O)Nc1ccc(Nc2cc([N+](=O)[O-])cc(Cl)[n+]2[O-])cc1
IC50 [16]: 5.74 µM (active) | IC50 (Steroidogenic factor 1): 1.56 µM (active) | IC50 [17]: 35.9 µM (inactive)
